Values of other authors as cited in patent US20020037319A1, “Drug preparations” (priority 1999, published 2002).
Structures can show the parent of a compound that is named as a salt.

Tests used:
[1] = oral, therapeutic dosages between 100 mg and 200 mg per day

| solubility in water | treated patients who experience some form of GI (gastrointestinal) distress [1] | solubility in chloroform (sodium or potassium salt) | solubility in dilute acid (sodium or potassium salt) | solubility in ethanol (sodium or potassium salt) | solubility in methanol (sodium or potassium salt) | Structure (SMILES) |
| --- | --- | --- | --- | --- | --- | --- |
| sparingly soluble | – | – | – | – | – | O=C(O)Cc1ccccc1Nc1c(Cl)cccc1Cl [Diclofenac sodium] |
| soluble | – | – | – | – | – | O=C(O)Cc1ccccc1Nc1c(Cl)cccc1Cl [diclofenac potassium] |
| – | more than 50% | practically insoluble | practically insoluble | soluble | freely soluble | O=C(O)Cc1ccccc1Nc1c(Cl)cccc1Cl [diclofenac, 2-[2,6-di-chlorophenyl)amino]benzeneacetic acid, monosodium or monopotassium salt] |
